Source: US5525599A, “7-substituted-amino-3-substituted-3-cephem-4-carboxylic acids” (Eli Lilly and Company, priority 1993, dated 1996)
Values after ≈ are worked out from the molar mass of the structure shown. Like-named read-outs stand apart in the source and are kept apart here.

Tests used:
E. coli (EC14) = assay: In vitro activity (MIC), agar dilution method; type: cell-based; conditions: Escherichia coli
Method: (§1) Cephalosporins 9a-o were assayed against a broad array of Gram-positive and Gram-negative bacteria in Mueller-Hinton agar by the 2-fold serial dilution method, (Kirst, H. A.; J. Antibiot. 1982, 35, 1675).
(§2) Test compounds were diluted to an appropriate range of concentrations in 0.1M phosphate buffer (pH 7), incorporated into Mueller-Hinton agar (difco) supplemented with 1% Bacto-Supplement C (Difco) at 50° C. and allowed to solidify in petri dishes. Fresh overnight cultures of test bacteria were diluted to approximately 1×10^4 cells/mL aand applied in […] to the surface of the agar plates. The inoculated plates were incubated overnight at 35° C. in ambient air. MIC endpoints were recorded as the lowest antibiotic concentrations that inhibited the development of visible bacterial growth on the plates.

E. coli (N10) = assay: In vitro activity (MIC), agar dilution method; type: cell-based; conditions: Escherichia coli
Method: as §1, §2

E. coli (TEM) = assay: In vitro activity (MIC), agar dilution method; type: cell-based; conditions: Escherichia coli
Method: as §1, §2

Enter. faecalis (2041) = assay: In vitro activity (MIC), agar dilution method; type: cell-based; conditions: Enterococcus faecalis; Enter. faecalis (2041), agar dilution; read-out: MIC
Method: as §1, §2

Enter. faecium (X66) = assay: In vitro activity (MIC), agar dilution method; type: cell-based; conditions: Enterococcus faecium; Enter. faecium (X66), agar dilution; read-out: MIC
Method: as §1, §2

H. influenzae (76) = assay: In vitro activity (MIC), agar dilution method; type: cell-based; conditions: Haemophilus influenzae; H. influenzae (76), agar dilution; read-out: MIC
Method: as §1, §2

H. influenzae (C.L.) = assay: In vitro activity (MIC), agar dilution method; type: cell-based; conditions: Haemophilus influenzae; H. influenzae (C.L.), agar dilution; read-out: MIC
Method: as §1, §2

K. pneumonia (KAE) = assay: In vitro activity (MIC), agar dilution method; type: cell-based; conditions: Klebsiella pneumoniae
Method: as §1, §2

K. pneumonia (X26) = assay: In vitro activity (MIC), agar dilution method; type: cell-based; conditions: Klebsiella pneumoniae; K. pneumonia (X26), agar dilution; read-out: MIC
Method: as §1, §2

K. pneumonia (X68) = assay: In vitro activity (MIC), agar dilution method; type: cell-based; conditions: Klebsiella pneumoniae
Method: as §1, §2

Staph. aureus (V41) = assay: In vitro activity (MIC), agar dilution method; type: cell-based; conditions: Staphylococcus aureus; Staph. aureus (V41), agar dilution; read-out: MIC
Method: as §1, §2

Staph. aureus (X1.1) = assay: In vitro activity (MIC), agar dilution method; type: cell-based; conditions: Staphylococcus aureus; Staph. aureus (X1.1), agar dilution; read-out: MIC
Method: as §1, §2

Staph. aureus (X400) = assay: In vitro activity (MIC), agar dilution method; type: cell-based; conditions: Staphylococcus aureus; Staph. aureus (X400), methicillin-resistant strain, agar dilution; read-out: MIC
Method: as §1, §2

Staph. epiderm. (222) = assay: In vitro activity (MIC), agar dilution method; type: cell-based; conditions: Staphylococcus epidermidis; Staph. epiderm. (222), methicillin-resistant strain, agar dilution; read-out: MIC
Method: as §1, §2

Staph. epiderm. (270) = assay: In vitro activity (MIC), agar dilution method; type: cell-based; conditions: Staphylococcus epidermidis, methicillin-resistant strain
Method: as §1, §2

Strept. pyogenes (C203) = assay: In vitro activity (MIC), agar dilution method; type: cell-based; conditions: Streptococcus pyogenes; Strept. pyogenes (C203), agar dilution; read-out: MIC
Method: as §1, §2

other Gram(-) bacteria = assay: In vitro activity (MIC), agar dilution method; type: cell-based
[1] = system: 33 strains of methicillin-resistant staphylococci; assay: Geometric mean MICs against 33 strains of methicillin-resistant staphylococci; type: cell-based; conditions: for MIC: 33 strains, read-out: Geometric mean MIC; for MICs relative to clinically achievable concentrations for cephalosporins / change of MICs in the presence of NaCl: in words, 4% NaCl
Method: as §2
It is known that resistance to methicillin in staphylococci is often of the heterogeneous type and therefore not easily detected. […] (Goldstein, F. W.; Acar, J. J. Antimicrob. Chemother. […], 27, 549). […] J.; Drake T. A.; Rusnak, M. G.; Sande, M. A. J. Infect. Dis. 1984, 149, 894).

[2] = MICs against 4 strains of methicillin-resistant staphylococci; type: cell-based, Staphylococcus aureus and Staphylococcus epidermidis; conditions: Staphylococcus aureus, read-out: minimal inhibitory concentrations (MICs)
Method: as §1, §2

Staph. aureus (S13E) = assay: In vitro activity (MIC), agar dilution method; type: cell-based; conditions: Staphylococcus aureus
Method: as §1, §2

[3] = E. coli (EC14), agar dilution, read-out: MIC
[4] = E. coli (N10), agar dilution, read-out: MIC
[5] = K. pneumonia (KAE), agar dilution, read-out: MIC
[6] = K. pneumonia (X68), agar dilution, read-out: MIC

Row | Compound | MIC (E. coli (EC14)) | MIC (E. coli (N10)) | MIC (E. coli (TEM)) | MIC (Enter. faecalis (2041)) | MIC (Enter. faecium (X66)) | MIC (H. influenzae (76)) | MIC (H. influenzae (C.L.)) | MIC (K. pneumonia (KAE)) | MIC (K. pneumonia (X26)) | MIC (K. pneumonia (X68)) | MIC (Staph. aureus (V41)) | MIC (Staph. aureus (X1.1)) | MIC (Staph. aureus (X400)) | MIC (Staph. epiderm. (222)) | MIC (Staph. epiderm. (270)) | MIC (Strept. pyogenes (C203)) | MIC (other Gram(-) bacteria) | MIC ([1]; MHA + 4% NaCl, 35° C.) | MIC ([1]; MHA) | MIC [2] | further results
1 | CC(=O)OCC1=C(C(=O)O)N2C(=O)[C@@H](NC(=O)Cc3csc(-c4ccccc4O)n3)[C@H]2SC1 [9a, [6R-[6A,7B(R*)]]-3-[(Acetyloxy)methyl]-7-[[[2-(2-hydroxyphenyl)-4-thiazolyl]acetyl]amino]-8-oxo-5-thia-1-azabicyclo[4.2.0]oct-2-ene-2-carboxylic Acid] | 128 µg/mL (≈ 261 µM) | 128 µg/mL (≈ 261 µM) | 128 µg/mL (≈ 261 µM) | 2 µg/mL (≈ 4.09 µM) | 16 µg/mL (≈ 32.7 µM) | 0.5 µg/mL (≈ 1.02 µM) | 8 µg/mL (≈ 16.3 µM) | 128 µg/mL (≈ 261 µM) | 2 µg/mL (≈ 4.09 µM) | 128 µg/mL (≈ 261 µM) | 0.25 µg/mL (≈ 0.511 µM) | 0.03 µg/mL (≈ 0.0613 µM) | 2 µg/mL (≈ 4.09 µM) | 4 µg/mL (≈ 8.17 µM) | 0.125 µg/mL (≈ 0.255 µM) | 1 µg/mL (≈ 2.04 µM) | > 64 µg/mL | 2.4 µg/mL | 1.7 µg/mL (≈ 3.47 µM) | ≤ 16 µg/mL | MICs relative to clinically achievable concentrations for cephalosporins [1]: remained in the range usually considered to be clinically achievable concentrations for cephalosporins; change of MICs in the presence of NaCl [1]: only slightly elevated in the presence of NaCl
2 | CC(=O)OCC1=C(C(=O)O)N2C(=O)[C@@H](NC(=O)Cc3csc(-c4c(O)cccc4O)n3)[C@H]2SC1 [9e, [6R-[6A,7B(R*)]]-3-[(Acetyloxy)methyl]-7-[[[2-(2,6-dihydroxyphenyl)-4-thiazolyl]acetyl]amino]-8-oxo-5-thia-1-azabicyclo[4.2.0]oct-2-ene-2-carboxylic Acid] |  |  |  | 4 µg/mL (≈ 7.91 µM) | 4 µg/mL (≈ 7.91 µM) | 4 µg/mL (≈ 7.91 µM) | 4 µg/mL (≈ 7.91 µM) |  | 0.5 µg/mL (≈ 0.989 µM) |  | 16 µg/mL (≈ 31.6 µM) | 8 µg/mL (≈ 15.8 µM) | 16 µg/mL (≈ 31.6 µM) | 0.5 µg/mL (≈ 0.989 µM) | 4 µg/mL (≈ 7.91 µM) | 0.03 µg/mL (≈ 0.0593 µM) | > 64 µg/mL |  |  | ≤ 16 µg/mL | MIC (E. coli (EC14); [3]): 16 µg/mL (≈ 31.6 µM); MIC (E. coli (N10); [4]): 64 µg/mL (≈ 127 µM); MIC (K. pneumonia (KAE); [5]): 128 µg/mL (≈ 253 µM); MIC (K. pneumonia (X68); [6]): 16 µg/mL (≈ 31.6 µM); MIC (Staph. aureus (S13E)): 4 µg/mL (≈ 7.91 µM)
3 | O=C(Cc1csc(-c2c(O)cccc2O)n1)N[C@@H]1C(=O)N2C(C(=O)O)=C(Cl)CS[C@H]12 [9f, [6R-[6A, 7B (R*)]]-3-Chloro-7-[[[2-(2,6-dihydroxyphenyl)-4-thiazolyl]acetyl]amino]-8-oxo-5-thia-1-azabicyclo[4.2.0]oct-2-ene-2-carboxylic Acid] |  |  |  | 8 µg/mL (≈ 17.1 µM) | 8 µg/mL (≈ 17.1 µM) | 1 µg/mL (≈ 2.14 µM) | 1 µg/mL (≈ 2.14 µM) |  | 0.5 µg/mL (≈ 1.07 µM) |  | 16 µg/mL (≈ 34.2 µM) | 16 µg/mL (≈ 34.2 µM) | 16 µg/mL (≈ 34.2 µM) | 2 µg/mL (≈ 4.27 µM) | 8 µg/mL (≈ 17.1 µM) | 0.06 µg/mL (≈ 0.128 µM) | > 64 µg/mL |  |  |  | MIC (E. coli (EC14); [3]): 32 µg/mL (≈ 68.4 µM); MIC (E. coli (N10); [4]): 32 µg/mL (≈ 68.4 µM); MIC (K. pneumonia (KAE); [5]): 128 µg/mL (≈ 274 µM); MIC (K. pneumonia (X68); [6]): 32 µg/mL (≈ 68.4 µM)
4 | CC(=O)OCC1=C(C(=O)O)N2C(=O)[C@@H](NC(=O)Cc3csc(-c4ncccc4O)n3)[C@H]2SC1 [9i, [6R-[6A,7B(R*)]]-3-[(Acetyloxy)methyl]-7-[[[2-(3-hydroxy-2-pyridinyl)-4-thiazolyl]acetyl]amino]-8-oxo-5-thia-1-azabicyclo[4.2.0]oct-2-ene-2-carboxylicAcid] | 128 µg/mL (≈ 261 µM) | 128 µg/mL (≈ 261 µM) | 128 µg/mL (≈ 261 µM) | 8 µg/mL (≈ 16.3 µM) | 8 µg/mL (≈ 16.3 µM) | 2 µg/mL (≈ 4.08 µM) | 4 µg/mL (≈ 8.15 µM) | 128 µg/mL (≈ 261 µM) | 1 µg/mL (≈ 2.04 µM) | 128 µg/mL (≈ 261 µM) | 0.5 µg/mL (≈ 1.02 µM) | 0.125 µg/mL (≈ 0.255 µM) | 4 µg/mL (≈ 8.15 µM) | 0.125 µg/mL (≈ 0.255 µM) | 0.5 µg/mL (≈ 1.02 µM) | 0.015 µg/mL (≈ 0.0306 µM) | > 64 µg/mL | 8 µg/mL | 4.8 µg/mL (≈ 9.79 µM) | ≤ 16 µg/mL | MIC (Staph. aureus (S13E)): 2 µg/mL (≈ 4.08 µM); MICs relative to clinically achievable concentrations for cephalosporins [1]: remained in the range usually considered to be clinically achievable concentrations for cephalosporins; change of MICs in the presence of NaCl [1]: only slightly elevated in the presence of NaCl
